Data as given in ChEMBL document CHEMBL1128013, “The synthesis and biological activity of tetrahydroquinoline angiotensin II antagonists containing a substituted biphenyltetrazole group” (Bioorg Med Chem Lett, 1994).

Columns and labels:
[1] = tested on: Rattus norvegicus; assay: Tested in vivo for inhibition of pressor response induced by infusion of AII in conscious normotensive rats, when given intravenously; assay type: functional, organism-based
[2] = target: T1, Type-1 angiotensin II receptor (Cavia porcellus, UniProt Q9WV26); assay: Compound was tested for in vitro inhibition of specific binding of [I-125]AII to AT1 receptor in guinea pig adrenal membrane preparation; assay type: cell membranes
T1 sequence (Q9WV26 whole entry): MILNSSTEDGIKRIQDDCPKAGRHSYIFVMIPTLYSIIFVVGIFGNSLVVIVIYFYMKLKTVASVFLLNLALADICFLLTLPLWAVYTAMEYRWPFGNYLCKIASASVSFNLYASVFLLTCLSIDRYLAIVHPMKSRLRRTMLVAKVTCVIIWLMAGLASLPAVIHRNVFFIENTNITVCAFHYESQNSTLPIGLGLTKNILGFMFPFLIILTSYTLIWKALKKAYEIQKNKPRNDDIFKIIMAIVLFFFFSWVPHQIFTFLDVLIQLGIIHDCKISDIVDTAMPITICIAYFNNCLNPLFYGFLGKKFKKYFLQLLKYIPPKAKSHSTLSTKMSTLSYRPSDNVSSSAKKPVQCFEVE

[3] = target: T1, Type-1 angiotensin II receptor; assay: Compound was tested for in vitro inhibition of specific binding of [I-125]AII to Angiotensin II receptor, type 1 in guinea pig adrenal membrane preparation; assay type: cell membranes

## CCc1cc(OCc2ccc(-c3ccccc3-c3nn[nH]n3)c(C(=O)O)c2)c2c(n1)CCCC2
[1]
  EC50: 0.24 mg/kg
[2]
  IC50: 27 nM

## CCCCc1nc(Cl)c(CO)n1Cc1ccc(-c2ccccc2-c2nnn[nH]2)cc1 [LOSARTAN]
[1]
  EC50: 0.65 mg/kg

## CCc1cc(OCc2ccc(-c3ccccc3-c3nn[nH]n3)c(Cl)c2)c2c(n1)CCCC2
[1]
  EC50: 0.52 mg/kg
[2]
  IC50: 7 nM

## CCc1cc(OCc2ccc(-c3ccc(C)cc3-c3nn[nH]n3)cc2)c2c(n1)CCCC2
[3]
  IC50: 54 nM

## CCc1cc(OCc2ccc(-c3c(C)cccc3-c3nn[nH]n3)cc2)c2c(n1)CCCC2
[3]
  IC50: 29 nM
[1]
  EC50: 0.48 mg/kg

## CCc1cc(OCc2ccc(-c3ccccc3-c3nn[nH]n3)cc2F)c2c(n1)CCCC2
[3]
  IC50: 9 nM
[1]
  EC50: 0.22 mg/kg

## CCc1cc(OCc2ccc(-c3ccc(Cl)cc3-c3nnn[nH]3)cc2)c2c(n1)CCCC2
[3]
  IC50: 93 nM

## CCc1cc(OCc2ccc(-c3ccccc3-c3nn[nH]n3)c(C(=O)OC)c2)c2c(n1)CCCC2
[1]
  EC50: 0.11 mg/kg
[2]
  IC50: 20 nM

## CCc1cc(OCc2ccc(-c3cc(OC)ccc3-c3nn[nH]n3)cc2)c2c(n1)CCCC2
[3]
  IC50: 67 nM

## CCc1cc(OCc2ccc(-c3ccccc3-c3nn[nH]n3)c(OC)c2)c2c(n1)CCCC2
[1]
  EC50: 0.39 mg/kg
[2]
  IC50: 8 nM

## CCc1cc(OCc2ccc(-c3ccccc3-c3nn[nH]n3)cc2)c2c(n1)CCCC2
[3]
  IC50: 5 nM
[1]
  EC50: 0.39 mg/kg

## CCc1cc(OCc2ccc(-c3ccc(OC)cc3-c3nnn[nH]3)cc2)c2c(n1)CCCC2
[3]
  IC50: 140 nM

## CCc1cc(OCc2ccc(-c3ccccc3-c3nn[nH]n3)c(C(C)=O)c2)c2c(n1)CCCC2
[1]
  EC50: 0.1 mg/kg
[2]
  IC50: 6 nM
